Results reported in US10828276B2, “Combination therapeutics and methods for the treatment of neurodegenerative and other diseases” (APHIOS CORPORATION, priority 2012, dated 2020).

Key:
[1] = test system: Alzheimer's disease mediated memory loss; experiment: Water maze studies in sweAPP/PS1 mice; assay type: in vivo, Mouse strain B6C3-Tg
Text: Mouse strain B6C3-Tg carrying mutant Swedish Amyloid precursor protein (sweAPP) and PS1 (presenilin-1) genes associated with early onset Alzheimer's disease were subjected to water maze tests at 5-6 months of age.

ADAM10 = ADAM10 expression in SH-SY5Y cells; assay type: cell-based; conditions: single agents
Text: Therefore, Bryostatin-1 may increase […]-secretase processing through 2 independent mechanisms: (i) activation of PKCs which stimulate[…]secretase; and (ii) increased expression of […]-secretase.

[2] = test system: SH-SY5Y neuroblastoma cells; experiment: sAPP-a release from SH-SY5Y cells (6E10 western blot, densitometry); assay type: cell-based
Experimental: Cells were treated with RA, Bryostatin-1 (10^−9M)+RA, Bryostatin-1 (10^−10M), RA+Bryostatin-1 (10^−10M) for 3 h.

## CCC/C=C/C=C/C(=O)O[C@H]1/C(=C/C(=O)OC)C[C@H]2C[C@H]([C@@H](C)O)OC(=O)C[C@H](O)C[C@@H]3C[C@H](OC(C)=O)C(C)(C)[C@](O)(C[C@@H]4C/C(=C/C(=O)OC)C[C@H](/C=C/C(C)(C)[C@]1(O)O2)O4)O3 [Bryostatin-1]
[1]; 5 micrograms/mouse on alternative days orally in an oil formulation, mice 5-6 months of age, vs control animals
  protection against Alzheimer's disease mediated memory loss (water maze): significant protection
[1]; our AD model
  memory and cognition in AD model: enhance memory and cognition
ADAM10
  expression of ADAM10: significantly increase
[2]; 10^−9M Bryostatin-1 alone
  sAPP formation: increased
[2]; SH-SY5Y neuroblastoma cells
  activity of alpha-secretase: potently stimulate
[2]; single agents, RA 2 μM, Bryostatin-1 10^−10M, 3 h, p<0.05, p<0.01
  sAPPa recovered from culture medium compared to control: significantly increased
